Laboratory results taken from patent EP4616862A1, “ANTIVIRAL C[…] DERIVED FROM NUCLEIC ACID AND PHARMACEUTICALLY ACCEPTABLE SALTS THEREOF” (priority 2022, dated 2024).
Like-named read-outs stand apart in the source and are kept apart here.

Key:
FIPV = FIPV infection inhibition in FCWF-4 cells (RT-qPCR); format: cell-based, Feline Infectious peritonitis virus; settings: for IC50: FCWF-4 cell line; for SI (selectivity index): CC50/IC50
[1] = system: Canine coronavirus (CCoV); test: microbe, parasite or virus in culture; format: cell-based
in vitro [2] = test: in vitro
RNaseL = format: cell-based, Pig
Feline Calicivirus (FCV) = test: microbe, parasite or virus in culture; format: cell-based; settings: for IC50: Feline calicivirus, CRFK
[3] = Cytotoxicity (CAV example); format: cell-based, monkey; settings: Table 5 (CAV), cell line for cytotoxicity not given
Feline parvovirus (FPV) = test: microbe, parasite or virus in culture; format: cell-based; settings: for IC50: Feline parvovirus, CRFK
Mx1 = format: cell-based, Pig
[4] = system: African Swine Fever Virus (ASFV, China/2018/AnhuiXCGQ); test: microbe, parasite or virus in culture; format: cell-based; settings: for IC50: African swine fever virus
[5] = Cytotoxicity (FIPV example); format: cell-based, feline; settings: Table 9 (FIPV), cell line for cytotoxicity not given
in vitro [6] = test: in vitro; remark: listed apart in the source
[7] = system: Canine distemper virus (CDV); test: microbe, parasite or virus in culture; format: cell-based; settings: for IC50: canine distemper virus, Vero
[8] = Cytotoxicity (FPV example); format: cell-based, feline; settings: Table 7 (FPV), cell line for cytotoxicity not given
[9] = Cytotoxicity (CCoV example); format: cell-based, canine; settings: Table 4 (CCoV), cell line for cytotoxicity not given
[10] = system: Low pathogenic avian influenza virus (LPAIV, H9N2); test: microbe, parasite or virus in culture; format: cell-based; settings: for IC50: unidentified influenza virus, H9N2, MDCK
Canine adenovirus (CAV) = test: CAV infection inhibition in Vero cells (qPCR of viral DNA); format: cell-based; settings: for SI (selectivity index): CC50/IC50; for IC50: Canine mastadenovirus A, Vero cell line
[11] = system: Classical Swine Fever Virus (CSFV); test: microbe, parasite or virus in culture; format: cell-based; settings: for IC50: Classical swine fever virus
[12] = system: foot and mouth disease virus (FMDV); test: microbe, parasite or virus in culture; format: cell-based; settings: for IC50: Foot-and-mouth disease virus
in vitro [13] = test: in vitro; remark: listed apart in the source
[14] = Cytotoxicity (CDV example); format: cell-based, monkey; settings: Table 6 (CDV), cell line for cytotoxicity not given
in vitro [15] = test: in vitro; remark: listed apart in the source
ISG15 = format: cell-based, Pig
[16] = Cytotoxicity (FCV example); format: cell-based, feline; settings: Table 8 (FCV), cell line for cytotoxicity not given
[17] = Alphacoronavirus 1, 48 h, FIPV 100 TCID50/well, simultaneous treatment, 2 days, RT-qPCR, read-out: IC50 (FIPV infection inhibition concentration)
[18] = Alphacoronavirus 1, A-72, 48 h, read-out: IC50 (CCoV infection inhibition concentration)
[19] = 24 h, read-out: IC50 (FCV infection inhibition concentration)
[20] = 48 h, read-out: IC50 (FPV infection inhibition concentration)
[21] = 48 h, read-out: IC50 (ASFV infection inhibition concentration)
[22] = 72 h, read-out: IC50 (CDV infection inhibition concentration)
[23] = 48 h, read-out: IC50 (LPAIV infection inhibition concentration)
[24] = 48 h, CAV 100 TCID50/well, simultaneous treatment, 2 days, qPCR, read-out: IC50 (CAV infection inhibition concentration)
[25] = PK-15, 48 h, read-out: IC50 (CSFV infection inhibition concentration)
[26] = BHK-21, 36 h, read-out: IC50 (FMDV infection inhibition concentration)

| SMILES | IC50 (FIPV; [17]) | SI (selectivity index) (FIPV; FIPV) | SI (selectivity index) [1] | IC50 [1, 18] | Fold change (multiple increase compared to control group) RNaseL (RNaseL) | SI (selectivity index) (Feline Calicivirus (FCV)) | IC50 (Feline Calicivirus (FCV); [19]) | SI (selectivity index) (Feline parvovirus (FPV)) | IC50 (Feline parvovirus (FPV); [20]) | Fold change (multiple increase compared to control group) Mx1 (Mx1) | SI (selectivity index) [4] | IC50 [4, 21] | SI (selectivity index) [7] | IC50 [7, 22] | IC50 [10, 23] | SI (selectivity index) (Canine adenovirus (CAV); CAV) | IC50 (Canine adenovirus (CAV); [24]) | SI (selectivity index) [11] | IC50 [11, 25] | Fold change (multiple increase compared to control group) ISG15 (ISG15) | also measured |
| --- | --- | --- | --- | --- | --- | --- | --- | --- | --- | --- | --- | --- | --- | --- | --- | --- | --- | --- | --- | --- | --- |
| Nc1nc2c(ncn2[C@@H](CO)OC(CO)CO)c(=O)[nH]1 [Acyclic diol-Guanosine, acyclic diol form of guanosine] | < 1510 µM | > 6.6 | > 4.5 | < 2240 µM | 3.0 (±0.8) | > 75.1 | < 133 µM | > 1.9 | < 530 µM | 4.0 (±1.2) | > 37.0 | < 270 µM | > 4.7 | < 2120 µM | < 1340 µM | > 2.4 | < 4130 µM | > 2.8 | < 3610 µM | 4.2 (±1.5) | CC50 (in vitro [2]; pig, pam cells): > 10000 µM; CC50 ([3]; monkey, vero cells): > 10000 µM; CC50 ([5]; cat, fcwf-4 cells): > 10000 µM; CC50 (in vitro [6]; hamster, bhk-21 cells): > 10000 µM; CC50 ([8]; cat, crfk cells): > 10000 µM; CC50 ([9]; dog, a-72 cells): > 10000 µM; SI (selectivity index) [12]: > 4.9; IC50 [12, 26]: < 2060 µM; CC50 (in vitro [13]; pig, pk15 cells): > 10000 µM; CC50 ([14]; monkey, vero cells): > 10000 µM; CC50 (in vitro [15]; dog, mdck): > 10000 µM; CC50 ([16]; cat, crfk cells): > 10000 µM |
| O=c1[nH]cnc2c1ncn2[C@@H](CO)OC(CO)CO [Acyclic diol-Inosine, acyclic diol form of inosine] | < 872 µM | > 11.5 | > 7.9 | < 1270 µM | 2.0 (±0.3) | > 27.6 | < 362 µM | > 5.4 | < 1870 µM | 2.8 (±0.9) | > 28.3 | < 353 µM | > 3.7 | < 2700 µM | < 1810 µM | > 5.6 | < 1780 µM | > 5.7 | < 1750 µM | 6.3 (±0.4) | CC50 (in vitro [2]; pig, pam cells): > 10000 µM; CC50 ([3]; monkey, vero cells): > 10000 µM; CC50 ([5]; cat, fcwf-4 cells): > 10000 µM; CC50 (in vitro [6]; hamster, bhk-21 cells): > 10000 µM; CC50 ([8]; cat, crfk cells): > 10000 µM; CC50 ([9]; dog, a-72 cells): > 10000 µM; SI (selectivity index) [12]: > 8.3; IC50 [12, 26]: < 1200 µM; CC50 (in vitro [13]; pig, pk15 cells): > 10000 µM; CC50 ([14]; monkey, vero cells): > 10000 µM; CC50 (in vitro [15]; dog, mdck): > 10000 µM; CC50 ([16]; cat, crfk cells): > 10000 µM |
| Nc1nc2c(ncn2[C@@H](C=O)O[C@@H](C=O)CO)c(=O)[nH]1 [Dialdehyde-Guanosine, dialdehyde form of guanosine] | < 52.8 µM | > 113.7 | > 54.7 | < 110 µM | 2.5 (±0.1) | > 329.7 | < 18.2 µM | > 158 | < 38 µM | 3.5 (±0.7) | > 75.9 | < 79 µM | > 46.5 | < 129 µM | < 102 µM | > 69.8 | < 85.9 µM | > 36.1 | < 165 µM | 4.7 (±0.3) | IC50 ([1]; Alphacoronavirus 1, A-72): 110 µM; CC50 (in vitro [2]; pig, pam cells): > 6000 µM; IC50 (Feline Calicivirus (FCV)): 18.2 µM; CC50 ([3]; monkey, vero cells): > 6000 µM; IC50 [4]: 79 µM; CC50 ([5]; cat, fcwf-4 cells): > 6000 µM; CC50 (in vitro [6]; hamster, bhk-21 cells): > 6000 µM; CC50 ([8]; cat, crfk cells): > 6000 µM; CC50 ([9]; dog, a-72 cells): > 6000 µM; IC50 [10]: 102 µM; IC50 (Canine adenovirus (CAV); CAV, read-out: IC50): 85.9 µM; SI (selectivity index) [12]: > 52.3; IC50 ([12]; BHK-21): 115 µM; IC50 [12, 26]: < 115 µM; CC50 (in vitro [13]; pig, pk15 cells): > 6000 µM; CC50 ([14]; monkey, vero cells): > 6000 µM; CC50 (in vitro [15]; dog, mdck): > 6000 µM; CC50 ([16]; cat, crfk cells): > 6000 µM |
| O=C[C@@H](CO)O[C@H](C=O)n1cnc2c(=O)[nH]cnc21 [Dialdehyde-Inosine, dialdehyde form of inosine] | < 45.5 µM | > 219.9 | > 221.7 | < 45.1 µM | 3.0 (±0.2) | > 384.6 | < 26 µM | > 192 | < 52 µM | 3.5 (±1.1) | > 103.5 | < 96.6 µM | > 93.9 | < 106 µM | < 268 µM | > 30.7 | < 326 µM | > 42.0 | < 238 µM | 4.0 (±0.6) | IC50 (FIPV; Alphacoronavirus 1, FIPV, read-out: IC50): 45.5 µM; IC50 ([1]; Alphacoronavirus 1, A-72): 45.1 µM; CC50 (in vitro [2]): > 10000 µM; CC50 [3]: > 10000 µM; CC50 [5]: > 10000 µM; CC50 (in vitro [6]): > 10000 µM; CC50 [8]: > 10000 µM; CC50 [9]: > 10000 µM; SI (selectivity index) [10]: > 37.4; SI (selectivity index) [12]: > 22.9; IC50 [12, 26]: < 436 µM; CC50 (in vitro [13]): > 10000 µM; CC50 [14]: > 10000 µM; CC50 (in vitro [15]): > 10000 µM; CC50 [16]: > 10000 µM |
| O=C[C@@H](CO)O[C@H](C=O)n1cnc2c(=O)[nH]c(=O)[nH]c21 [Dialdehyde-Xanthosine, dialdehyde form of xanthosine] | < 55.1 µM | > 181.4 | > 232.6 | < 43 µM | 3.4 (±0.2) | > 398.0 | < 20.1 µM | > 258 | < 31 µM | 3.5 (±1.0) | > 90.9 | < 110 µM | > 125.1 | < 79.9 µM | < 222 µM | > 77.2 | < 130 µM | > 63.8 | < 157 µM | 4.5 (±0.4) | IC50 ([1]; Alphacoronavirus 1, A-72): 43 µM; CC50 (in vitro [2]): > 10000 µM; CC50 [3]: > 10000 µM; IC50 (Feline parvovirus (FPV)): 31 µM; CC50 [5]: > 10000 µM; IC50 [7]: 79.9 µM; CC50 [8]: > 8000 µM; CC50 [9]: > 10000 µM; SI (selectivity index) [10]: > 45.1; IC50 ([11]; PK-15): 157 µM; CC50 (in vitro [13]): > 10000 µM; CC50 [14]: > 10000 µM; CC50 (in vitro [15]): > 10000 µM; CC50 [16]: > 8000 µM |
| O=c1[nH]c(=O)c2ncn([C@@H](CO)OC(CO)CO)c2[nH]1 [Acyclic diol-Xanthosine, acyclic diol form of xanthosine] | < 1020 µM | > 9.8 | > 3.8 | < 2600 µM | 1.7 (±0.3) | > 64.5 | < 155 µM | > 1.7 | < 5750 µM | 2.7 (±1.4) | > 8.6 | < 1160 µM | > 4.9 | < 2050 µM | < 2000 µM | > 7.4 | < 1350 µM | > 3.4 | < 2960 µM | 4.7 (±1.3) | CC50 (in vitro [2]; pig, pam cells): > 10000 µM; CC50 ([3]; monkey, vero cells): > 10000 µM; CC50 ([5]; cat, fcwf-4 cells): > 10000 µM; CC50 (in vitro [6]; hamster, bhk-21 cells): > 10000 µM; CC50 ([8]; cat, crfk cells): > 10000 µM; CC50 ([9]; dog, a-72 cells): > 10000 µM; SI (selectivity index) [12]: > 5.0; IC50 [12, 26]: < 2000 µM; CC50 (in vitro [13]; pig, pk15 cells): > 10000 µM; CC50 ([14]; monkey, vero cells): > 10000 µM; CC50 (in vitro [15]; dog, mdck): > 10000 µM; CC50 ([16]; cat, crfk cells): > 10000 µM |
